# “Also recorded” adds a separate entry of the source.
# Assays:
# SphK2 [1] = molecular target: T1, SphK2 (Homo sapiens (Human), UniProt Q9NRA0); test: ADP-Glo kinase assay, SphK2; type: biochemical
# Description: The bioluminescence-based kinase assay such as ADP-Glo assay measures ADP formed from a kinase reaction with a luciferase. Upon the completion of a kinase reaction, the remaining ATP is depleted, the ADP produced in the kinase reaction is then converted to ATP and the detection is based on a sensitive and robust bioluminescence reaction. It has a broad linear range of ATP concentrations and high dynamic range. To determine the inhibition activity of the compounds, the ADP-Glo kinase assay was used which was able to detect down to 20% of 1 μM ATP to ADP conversion (FIG. 4A).
# ADP-Glo (Promega, Madison, WI) kinase assay were used to evaluate the kinase activity of SphK. ATP to ADP standard curves were prepared in the kinase buffer to assess the linearity of the assay in order to calculate the amount of ADP produced in each tested conditions (FIG. 4A). SB10 (tenfold signal to background ra-tio) of SphK was also determined to evaluate the enzyme perfor-mance and to optimize the kinase reaction condition in this system. In brief, for SphK2, […], 100 μM of D-erythro-Sphingosine (Tocris Bioscience, Minneapolis, MN), and 2 ng of recombinant human SphK2 (R&D Systems, Minneapolis, MN) with desired concentration of each synthesized compound were used for SphK2 kinase reaction. For SphK1, exact same reaction condition was used except 0.5 ng of recombinant human SphK1 was used.
# To evaluate the SphK selectivity of each compound, 125 μM of each compound in reaction buffer ([…] Tris, pH 8.0, […] MgCl2, and 0.1 mg/mL BSA) with 5% DMSO was incubated with either SphK1 or SphK2 in a 384-well solid white low volume microplate (Corning, Corning, NY), and the reaction was initiated by adding mixture of ATP and D-erythro-Sphingosine to a total volume of 5 μL, after 1 h incubation at room temperature with gentle shaking, the reaction was stopped by adding equal volume of ADP-Glo buffer and incubated for another hour to remove excess amount of ATP from the reaction. Afterwards, 10 μL of kinase detection reagent was added, mixed, and incubated for 30 min under dark. Luminescence output was recorded using a SpectraMax M5 Multi-Mode Microplate Readers (Molecular Devices, San Jose, CA), an integration time of 500 ms was used. All reactions were performed in triplicate. The enzyme activity of SphK in the presence of each compound was normalized to the no treatment control. […] The final data was calculated using Prism 7.0 (GraphPad Software, La Jolla, CA), IC50 was determined using Nonlinear regression (curve fit) four parameters dose-response calculations.
# SiHa cells = test: CellTiter96 MTS cell viability dose response, SiHa; type: cell-based; conditions: Homo sapiens
# Experimental: (§1) The anti-tumor activity of these inhibitors was also examined in different cell types. U-251 MG cells, SiHa cells, BT20 cells, and MDA-MB-453 cells were treated with increasing dose (10^−10 M to 10^−4 M) of SphK2 inhibitor TZ72-53 (21b), and dose response curves were generated (FIG. 9). IC50 values of 21b in the four different cell lines were calculated by non-linear regression analysis of the dose-response curve and are shown in Table 5 below.
# (§2) Cell viability was determined using CellTiter96 MTS Assay and compared to DMSO treated control cells. IC50 values were calculated by non-linear regression analysis of the dose-response curve using GraphPad Prism version 8.00 for Windows (GraphPad Software).
# [2] = system: U-251 MG human glioblastoma cells; test: U-251 MG cell viability, Hoechst 33258/propidium iodide imaging, 125 μM, 24 h; type: cell-based; conditions: hydrochloride
# Experimental: Cells were seeded into a 96-well microplate (Corning, Corning, NY) at 3000 cells/well and incubated for approximately 16 h. […] Cells were imaged using MetaXpress High-Content Image Acquisition and Analysis Software 6.1 and ImageXpress Micro XLS Wide-field High-Content Analysis System (Molecular Devices, San Jose, CA). Images were taken with a Nikon 10 CFI Plan Fluor objective. For all samples, triplicated measurements were performed.
# U-251 MG cells = test: CellTiter96 MTS cell viability dose response, U-251 MG; type: cell-based, human; conditions: Homo sapiens; U-251 MG cells, 72 h, MTS; read-out: IC50 (cell viability)
# Experimental: The anti-tumor activity of these inhibitors was further examined at different doses.
# as §2
# BT20 cells = test: CellTiter96 MTS cell viability dose response, BT20; type: cell-based; conditions: Homo sapiens, BT-20
# Experimental: as §1, §2
# MDA-MB-453 cells = test: CellTiter96 MTS cell viability dose response, MDA-MB-453; type: cell-based; conditions: Homo sapiens, MD-MB-453 (MDA-MB-453) cells
# Experimental: as §1, §2
# SphK1 = SphK1 (Homo sapiens (Human), UniProt Q9NYA1); conditions: cited from earlier work
# SphK2 [3] = molecular target: T1, SphK2; conditions: human SphK2; cited from earlier work
# T1 sequence (Q9NRA0 whole entry): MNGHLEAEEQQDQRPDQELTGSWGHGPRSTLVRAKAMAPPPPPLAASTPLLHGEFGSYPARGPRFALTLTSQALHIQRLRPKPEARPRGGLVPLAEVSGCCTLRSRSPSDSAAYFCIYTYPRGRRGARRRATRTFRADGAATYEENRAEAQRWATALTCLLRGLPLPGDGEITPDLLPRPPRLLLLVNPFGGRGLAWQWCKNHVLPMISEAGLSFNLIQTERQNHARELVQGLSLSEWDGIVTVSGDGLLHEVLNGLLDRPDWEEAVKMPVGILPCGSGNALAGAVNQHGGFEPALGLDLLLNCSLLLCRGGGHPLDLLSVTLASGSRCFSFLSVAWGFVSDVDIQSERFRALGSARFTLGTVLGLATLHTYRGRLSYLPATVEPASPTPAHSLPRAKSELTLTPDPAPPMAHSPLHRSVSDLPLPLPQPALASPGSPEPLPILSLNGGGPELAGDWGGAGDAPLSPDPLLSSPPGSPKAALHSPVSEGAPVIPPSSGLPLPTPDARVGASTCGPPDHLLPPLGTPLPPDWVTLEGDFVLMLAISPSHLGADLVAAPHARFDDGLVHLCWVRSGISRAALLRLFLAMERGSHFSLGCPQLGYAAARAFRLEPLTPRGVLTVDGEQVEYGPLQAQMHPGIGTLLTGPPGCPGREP
# Sequence of SphK1 (Q9NYA1 whole entry): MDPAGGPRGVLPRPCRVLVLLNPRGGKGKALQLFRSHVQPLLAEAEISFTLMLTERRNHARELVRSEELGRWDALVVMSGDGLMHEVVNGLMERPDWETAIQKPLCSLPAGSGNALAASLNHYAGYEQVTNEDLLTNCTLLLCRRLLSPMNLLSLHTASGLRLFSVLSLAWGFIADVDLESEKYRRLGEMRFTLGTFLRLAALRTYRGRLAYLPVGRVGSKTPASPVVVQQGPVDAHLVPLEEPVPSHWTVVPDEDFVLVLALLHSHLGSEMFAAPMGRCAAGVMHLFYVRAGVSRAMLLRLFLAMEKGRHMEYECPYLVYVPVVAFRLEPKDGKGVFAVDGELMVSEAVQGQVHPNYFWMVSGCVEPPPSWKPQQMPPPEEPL
SphK2 inhibitory activity (in words) (SphK2 [1]),IC50 (U-251 MG cells) [µM],IC50 (BT20 cells) [µM],IC50 (MDA-MB-453 cells) [µM],Compound,"selectivity/specificity for SphK2 over SphK1 (SphK2 [1]; 125 μM of each compound, SphK2 versus SphK1, FIG. 5, hydrochloride)",IC50 (SiHa cells) [µM],antitumor activity / reduction of U-251 MG cell viability (in words) [2],Ki (SphK1) [µM],Ki (SphK2 [3]) [µM]
no inhibitory activity,11,21.3,35.8,"Cl.N=C(N)N1CCC[C@H]1Cc1nc(-c2ccc(Cn3cc(-c4ccc(C(F)(F)F)cc4)nn3)cc2)no1 [Compound 21b, (S)-2-((3-(4-((4-(4-(Trifluoromethyl)phenyl)-1H-1,2,3-triazol-1-yl)methyl)phenyl)-1,2,4-oxadiazol-5-yl)methyl)-pyrrolidine-1-carboximidamide hydrochloride]",lowest specificity; also recorded: no selectivity,13,high anti-tumor activity; also recorded: significant reduction,–,–
–,–,–,–,Cc1ccc(S(=O)(=O)Nc2ccccc2C=Nc2ccccc2NS(=O)(=O)c2ccc(C)cc2)cc1 [MP-A08],–,–,–,27 ± 3,6.9 ± 0.8
